Consider four compounds from paper PMC12056667 (Chemical Science, 2025).

The target in assay [1] is T1, Tet(X4) (Escherichia coli, UniProt A0A3T0V9Y5). Description: FP competitive displacement of probe 6. Conditions: for IC50: IC50app, 25 nM 6, 40 nM Tet(X4), 5 mM MgCl2, 1 μM FAD, 100 mM Tris pH 7.0, 0.01% Triton X-100. In kind it is binding. An outline of the steps:
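FP displacement of probe 6 (added as 50 nM solution) from Tet(X4) (2× mix: 80 nM enzyme, 2 μM FAD, 10 mM MgCl2), 30 min at ambient temperature. Dose-response used 3-fold, 10-point DMSO series (top 5 or 0.5 mM stock). IC50^app came from a Hill fit of control-normalised response. Library screening used 10 μM compound, 0.1% DMSO, […].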

Assay [2] concerns the target T1, Tet(X4). As to the kind of experiment: biochemical. Conditions: 20 μM tigecycline, 50 nM Tet(X4), 100 μM NADPH, 5 mM MgCl2, 1 μM FAD, 100 mM TAPS pH 8.5; read-out: IC50, UPLC assay. The method, then:
We then tested the binding of reported type 1 TDase inhibitors to Tet(X4) (Fig. 3f, ESI Fig. S17 ^†).[33,38,39] […] We also developed a complementary endpoint activity assay where the turnover of tigecycline by Tet(X4) in a 96-well plate was quenched by addition of 1%v/v formic acid and analysed chromatographically. The peak integrals of tigecycline and its hydroxylated degradation product at 254 nm following UPLC analysis were measured to determine turnover (Fig. 5a).
[…] A 3-fold, 10-point dilution series of the substrates and inhibitors was made in DMSO with a top concentration of 10 mM, unless otherwise stated, and transferred to the enzyme solution using a CyBi-Well liquid-handling robot (CyBio), 1 μL per well. On each plate, a column of no enzyme negative controls and no inhibitor (DMSO only) positive controls were included. The plate was incubated at 30 °C for 15 min. A solution containing 100 mM TAPS (pH 8.5), 40 μM tigecycline and 200 μM NADPH was then dispensed, with 49 μL per well. The plate was incubated at 30 °C for 20 min at 600 rpm. 10 μL of 10%v/v formic acid solution was then dispensed into all wells. Samples were analysed using an ACQUITY H-Class PLUS UPLC instrument (Waters) equipped with a pre-equilibrated ACQUITY BEH C18 column ([…], […], Waters) using a gradient of 1–50%v/v acetonitrile with 0.1%v/v formic acid in water with 0.1%v/v formic acid over 1.83 minutes at a flow rate of 0.5 mL min^−1. Instrument control and data processing were performed using MassLynx V4.1 software. The peaks representing tigecycline and 11a-hydroxy-tigecycline were integrated, used to calculate % conversion and then normalised between positive and negative controls. The normalised % response was plotted as a function of log10[Inhibitor], and the IC50 determined as described above.

In assay [3] the test system is Proteus penneri NT6-2 – tet(X6). Description: microbe, parasite or virus in culture. Format: cell-based. To be noted: for MIC: Proteus penneri, read-out: Tet(X) Inhibitor MIC; for Combination (Antibiotic/Inhibitor) MICs: inhibitor / Combination (Antibiotic/Inhibitor) MICs: antibiotic: lowest FICI. How it is done:
(§1) MIC tests and checkerboard assays were performed in U-bottom, 96-well microtiter plates using a modified broth microdilution protocol following CLSI guidelines. Cation-adjusted Mueller-Hinton Broth (CAMHB) was prepared fresh on the day of testing.[74] […] Bacterial colonies were selected from an overnight culture on MHA plates (supplemented with 0.2%w/vL-arabinose for E. coli TOP10 containing pBAD-TOPO-Tet(X4)) and were suspended in 0.9% saline solution to achieve a 0.5 McFarland standard. A 100 μL aliquot of this suspension was then diluted into 9.9 mL of CAMHB to yield approximately 1.5 × 10^6 cfu mL^−1. 50 μL of the suspension was then added to each well of a microtiter plates. Plates were incubated at 37 °C for 18 h. At least 2 replicates were conducted for each combination. E. coli TOP10 + pBAD-TOPO-Tet(X4) cells were grown in the absence and presence of 0.2%w/vL-arabinose. Analysis of the MIC and checkerboard results were carried out by visual inspection of growth, with and without resazurin dye, an oxidation–reduction indicator.[75] As a measure of synergy, fractional inhibitory concentration index (FICI) was calculated as FICA + FICB, where FICA and FICB are the MICcombination/MICalone for each agent, respectively.[76] Results were interpreted as follows: synergistic (<0.5), indifferent (1.0–4.0) or antagonistic (>4.0).[64] In cases where the MIC exceeded or was below the measured range, the borderline value was taken to calculate the FIC index.

The test system of assay [4] is Acinetobacter baumannii NT5-1 – tet(X5). Description: microbe, parasite or virus in culture. Format: cell-based. Conditions: for MIC: Acinetobacter baumannii, read-out: Tet(X) Inhibitor MIC; for Combination (Antibiotic/Inhibitor) MICs: inhibitor / Combination (Antibiotic/Inhibitor) MICs: antibiotic: lowest FICI. How it is done:
as §1

In assay [5] the test system is Escherichia coli T-24a – tet(X4). As to the kind of experiment: microbe, parasite or virus in culture. Format: cell-based. Conditions: for MIC: Escherichia coli, read-out: Tet(X) Inhibitor MIC, alone; for Combination (Antibiotic/Inhibitor) MICs: inhibitor / Combination (Antibiotic/Inhibitor) MICs: antibiotic: lowest FICI. How it is done: as §1
[6] abbreviates: inhibitor in combination with tigecycline.
The mark [7] stands for this setting: tigecycline in combination with the inhibitor.

Molecules are shown by their SMILES.

Regarding `Cc1c2c(c(O)c3c(O)cccc13)C(=O)[C@]1(O)C(=O)C(C(N)=O)=C(O)[C@@H](N(C)C)[C@@H]1C2` [Anhydrotetracycline], the half-maximal inhibitory concentration (IC50) on Tet(X4) [1] (FP assay) stood at 0.0268 ± 0.0053 µM; on Tet(X4) [2], 2.6 ± 0.3 µM. On Tet(X4) [1] (up to a maximum concentration of 100 μM), the “displacement of probe 6 / competitive binding (in words)” value was “clear dose-dependent displacement”. Moreover, the MIC in assay [3] worked out at 4 µg/mL; in assay [4], 16 µg/mL; in assay [5] (E. coli T-24a) it was 64 µg/mL. The “Combination (Antibiotic/Inhibitor) MICs: inhibitor” value worked out at 1 µg/mL in assay [3] (setting [6]), 4 µg/mL in assay [4] (setting [6]) and 32 µg/mL in assay [5] (setting [6]). Besides, the “Combination (Antibiotic/Inhibitor) MICs: antibiotic” value in assay [3] (setting [7]) came to 4 µg/mL; in assay [4] (setting [7]), 2 µg/mL; in assay [5] (setting [7]), 4 µg/mL. The FICI in assay [3] (with tigecycline) is 0.8; in assay [4] (with tigecycline), 0.5; in assay [5] (with tigecycline), 0.8. Further, the Outcome entry in assay [3] (with tigecycline), in assay [4] (with tigecycline) and in assay [5] (with tigecycline) was “indifferent (indifferent (0.5-4.0))” each time.
Take `O=C(c1ccc(OCCN2CCCCC2)cc1)c1c(-c2ccc(O)cc2)sc2cc(O)ccc12` [Raloxifene]: the results for the IC50 on Tet(X4) [1] (Tet(X4) (Polarization)) and on Tet(X4) [2] were 19.8 ± 5.4 µM and 8.3 ± 2.1 µM, respectively. For the same compound, the MIC in assay [3] is > 128 µg/mL; in assay [4] it was > 128 µg/mL; in assay [5] (E. coli T-24a), 256 µg/mL. Besides, the “Combination (Antibiotic/Inhibitor) MICs: inhibitor” value in assay [3] (setting [6]) was > 128 µg/mL; in assay [4] (setting [6]) it was 128 µg/mL; in assay [5] (setting [6]), 128 µg/mL. Besides, the “Combination (Antibiotic/Inhibitor) MICs: antibiotic” value in assay [3] (setting [7]) came to 8 µg/mL; in assay [4] (setting [7]) it was 2 µg/mL; in assay [5] (setting [7]), 8 µg/mL. The FICI was 2 in assay [3] (with tigecycline), 1.3 in assay [4] (with tigecycline) and 1 in assay [5] (with tigecycline). The Outcome result in assay [3] (with tigecycline), in assay [4] (with tigecycline) and in assay [5] (with tigecycline) was “indifferent (indifferent (0.5-4.0))” in each case.
Consider `CN1CCN(CCCN2c3ccccc3Sc3ccc(C(F)(F)F)cc32)CC1` [Trifluoperazine], for which the half-inhibitory concentration (IC50) was determined as 55.6 ± 14.2 µM at Tet(X4) [1] (Tet(X4) (Polarization)) and 83.8 ± 21.4 µM on Tet(X4) [2]. Besides, the MIC in assay [3] was > 128 µg/mL; in assay [4], 128 µg/mL; in assay [5] (E. coli T-24a), 256 µg/mL. Moreover, the “Combination (Antibiotic/Inhibitor) MICs: inhibitor” value was found to be 128 µg/mL in assay [3] (setting [6]), 64 µg/mL in assay [4] (setting [6]) and 32 µg/mL in assay [5] (setting [6]). Besides, the entries for the “Combination (Antibiotic/Inhibitor) MICs: antibiotic” value in assay [3] (setting [7]), in assay [4] (setting [7]) and in assay [5] (setting [7]) were 4 µg/mL, 1 µg/mL and 8 µg/mL, respectively. In addition, the FICI turned out to be 1.5 in assay [3] (with tigecycline), 0.6 in assay [4] (with tigecycline) and 0.6 in assay [5] (with tigecycline). Also, the Outcome result in assay [3] (with tigecycline), in assay [4] (with tigecycline) and in assay [5] (with tigecycline) was “indifferent (indifferent (0.5-4.0))” each time.
Take `[H]/N=C(/NCCCCC)N/N=C/c1c[nH]c2ccc(OC)cc12` [Tegaserod]: the half-maximal inhibitory concentration (IC50) on Tet(X4) [1] (Tet(X4) (Polarization)) came out at 43.2 ± 2.2 µM; at Tet(X4) [2], 25.9 ± 2.4 µM. Besides, the MIC in assay [3] was 64 µg/mL; in assay [4] it was 32 µg/mL; in assay [5] (E. coli T-24a) it was 16 µg/mL. The “Combination (Antibiotic/Inhibitor) MICs: antibiotic” value amounted to 8 µg/mL in assay [3] (doxycycline with tegaserod); 16 µg/mL in assay [3] (tetracycline with tegaserod); 4 µg/mL in assay [3] (setting [7]); 16 µg/mL in assay [4] (doxycycline with tegaserod); 128 µg/mL in assay [4] (tetracycline with tegaserod); 1 µg/mL in assay [4] (setting [7]). Also, the “Combination (Antibiotic/Inhibitor) MICs: antibiotic” value was determined as 4 µg/mL in assay [5] (doxycycline with tegaserod), 32 µg/mL in assay [5] (tetracycline with tegaserod) and 4 µg/mL in assay [5] (setting [7]). Moreover, the “Combination (Antibiotic/Inhibitor) MICs: inhibitor” value amounted to 16 µg/mL in assay [3] (setting [6]); 32 µg/mL in assay [3] (tegaserod with doxycycline); 32 µg/mL in assay [3] (tegaserod with tetracycline); 16 µg/mL in assay [4] (setting [6]); 4 µg/mL in assay [4] (tegaserod with doxycycline); 8 µg/mL in assay [4] (tegaserod with tetracycline). In addition, the “Combination (Antibiotic/Inhibitor) MICs: inhibitor” value was determined as 8 µg/mL in assay [5] (setting [6]), 16 µg/mL in assay [5] (tegaserod with doxycycline) and 16 µg/mL in assay [5] (tegaserod with tetracycline). Besides, the FICI in assay [3] (with doxycycline) is listed as 1.0; in assay [3] (with tetracycline), 1.0; in assay [3] (with tigecycline) it was 0.8; in assay [4] (with doxycycline), 0.6; in assay [4] (with tetracycline) it was 1.3; in assay [4] (with tigecycline), 0.6. Besides, the results for the FICI in assay [5] (with doxycycline), in assay [5] (with tetracycline) and in assay [5] (with tigecycline) were 0.6, 0.8 and 0.8, respectively. Further, the Outcome entry in assay [3] (with doxycycline), in assay [3] (with tetracycline), in assay [3] (with tigecycline), in assay [4] (with doxycycline), in assay [4] (with tetracycline) and in assay [4] (with tigecycline) was “indifferent (indifferent (0.5-4.0))” each time. Moreover, the Outcome result in assay [5] (with doxycycline), in assay [5] (with tetracycline) and in assay [5] (with tigecycline) was “indifferent (indifferent (0.5-4.0))” throughout. In addition, in assay [5] (alone, E. coli T-24a), the “Tet(X) inhibitor MIC” value turned out to be 32 µg/mL.
